Measured values as given in patent US20250066864A1, “METHODS FOR IDENTIFYING ADAR1 INHIBITORS, AND COMPOSITIONS AND METHODS OF USE IN TREATING CANCER” (The Wistar Institute of Anatomy and Biology, priority 2021, published 2025).
Entries after “also recorded” stand apart in the source; their conditions may differ.

Biological target: T1, ADAR1p110-E912A (Homo sapiens, UniProt P55265, E912A)
T1 sequence (P55265 1-931 isoform P55265-5 E617A): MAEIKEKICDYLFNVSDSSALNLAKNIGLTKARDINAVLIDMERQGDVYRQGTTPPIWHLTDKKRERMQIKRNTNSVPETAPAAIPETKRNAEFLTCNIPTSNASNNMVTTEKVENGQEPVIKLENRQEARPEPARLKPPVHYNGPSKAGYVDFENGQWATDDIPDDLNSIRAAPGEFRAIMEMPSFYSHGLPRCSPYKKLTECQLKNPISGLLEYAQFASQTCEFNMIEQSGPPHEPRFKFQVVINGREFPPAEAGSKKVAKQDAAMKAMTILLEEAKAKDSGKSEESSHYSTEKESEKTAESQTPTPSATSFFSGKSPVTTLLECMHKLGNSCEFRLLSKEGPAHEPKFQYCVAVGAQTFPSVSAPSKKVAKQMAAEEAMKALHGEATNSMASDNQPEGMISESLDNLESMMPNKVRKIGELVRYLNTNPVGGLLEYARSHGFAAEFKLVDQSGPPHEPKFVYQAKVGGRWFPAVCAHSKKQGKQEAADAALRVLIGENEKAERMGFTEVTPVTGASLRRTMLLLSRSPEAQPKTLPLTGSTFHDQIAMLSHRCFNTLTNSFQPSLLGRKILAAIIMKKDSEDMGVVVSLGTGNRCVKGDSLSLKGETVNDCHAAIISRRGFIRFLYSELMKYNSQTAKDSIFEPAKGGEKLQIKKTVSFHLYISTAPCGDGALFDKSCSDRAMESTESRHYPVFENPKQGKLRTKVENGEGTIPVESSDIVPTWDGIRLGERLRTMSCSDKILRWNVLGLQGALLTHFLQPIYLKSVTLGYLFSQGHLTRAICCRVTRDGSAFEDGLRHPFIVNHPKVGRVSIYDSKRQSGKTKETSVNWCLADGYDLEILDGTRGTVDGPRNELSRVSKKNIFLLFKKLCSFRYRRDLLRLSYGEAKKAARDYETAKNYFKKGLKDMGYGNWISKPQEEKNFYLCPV
Experiment: surface plasmon resonance (Biacore T200), ADAR1p110-E912A
Type: binding
Conditions: SPR
Excerpt: We synthesized 2 additional analogs of Compound #13 for preliminary structure activity relationships (SAR), namely, #13-Analog 1 and #13-Analog 2 (Table 3). Compound #13-Analog 1 lacks the 4-cyano moiety and #13-Analog 2 shifts the cyano to the 2-position of the phenyl ring. […] We hypothesized that the cyano-phenyl moiety will coordinate with the zinc atom in the active site when bound to ADAR1. We evaluated the ability of Compound #13 to bind to ADAR1 using surface plasmon resonance (SPR) on the Biacore T200. […] We modeled Compound #13 into the ADAR2 active site (56).

N#Cc1ccc(NC(=O)c2sc3ccccc3c2Cl)cc1 [Compound #13, 3-chloro-N-(4-cyanophenyl)-1-benzothiophene-2-carboxamide]
binding to mutant ADAR1p110-E912A: did not bind; also recorded: not to mutant E912A
